Test results from paper PMC11875816 (Heliyon, 2025).

What was measured:
[1] = molecular target: acetylcholinesterase (AChE) (Mus musculus, UniProt P21836); settings: SFN 10 mg/kg oral
Description: (§1) All efforts were made to minimize suffering and the number of animals used. One day before dissection, only water was provided and food was fasted. Acclimatized experimental animals were grouped into seven containing 7 mice each (Table 1 and Fig. 1).
(§2) Prepare the test substance at a concentration appropriate for each test using purified water. […] Amyloid beta (Aβ1-42) was prepared and administered following standard protocols. BSEP was orally administered at doses of 200 mg/kg/day and 400 mg/kg/day for one week before and after Aβ1-42 injection, each at a volume of 200 μL. Following intravenous administration, broccoli extract was orally administered at the same doses for two weeks.
(§3) Aβ1-42 ([…]) was surgically injected into the brain ventricle of anesthetized mice (intravenous [IV] injection of xylazine [5 mg/kg] and ketamine [50 mg/kg]). The skull was precisely punctured at specific coordinates using a small drill, and amyloid beta was injected deeply into the brain using a microinjector. The control group underwent the same procedure with saline injections instead. Following surgery, the incision sites were disinfected and sutured, and the animals were allowed to recover in a cage.

Aβ1-42-induced AD mice [2] = assay: Retention test of Morris water maze; format: in vivo; settings: 60 s free swimming, platform removed, control group 9.51 ± 5.2
Description: (§4) The water maze test evaluates the spatial memory of experimental animals by filling a circular pool (120 cm diameter × 60 cm hight) with water to a depth of 30 cm (maintained at 23 ± 2 °C). An escape zone (10 cm diameter) is designated in one section of the four quadrants, with the platform positioned 1 cm below the water surface and made invisible with skim milk powder. If the animal fails to locate the platform within 60 s, it is gently guided there and allowed to familiarize itself for 20 s. The test is conducted at 30-min intervals, four times daily for three consecutive days. Observations are recorded using a ceiling-mounted camera and analyzed using SMART 3.0 software (Panlab S.L., Barcelona, Spain).

acetylcholine (ACh) = assay: Brain tissue acetylcholine (ACh) level; design: species or system ICR male mice; settings: mouse, in vivo
From the text: as §1, with “Seven-week-old ICR male mice (25−30 g body weight range) were purchased from the Samtaco BIO, KOREA (Osan-si, Gyeonggi-do, Korea). […] All” for “All”
as §2, §3

TNF-α = TNF-α gene expression in LPS-induced RAW 264.7 macrophages (qPCR); format: cell-based, murine
Description: RAW 264.7 cells at passage 3 were seeded at 1 × 10^5 cells/mL to each well of a 6-well cell culture plate. The cells were cultured until it reached 70−80 % confluency and media were changing every 2 days. Upon confluency, removed the old media and cells were pre-treated with 1 mL non-serum media for 10−15 min in the incubator. All controls and samples, dilutions are prepared in non-serum media. Removed non-serum media and added with LPS (1 μg/mL) in non-serum media for 24 h. Next day, removed the LPS containing media and washed once with 1 × PBS and then the cells were treated with SFN solutions for 1 h. Removed the treatment solution, washed twice with 1 × PBS, pH 7.4. The cells were dissociated and collected by sedimentation (1500 rpm, 6 min).
The total RNA content was extracted following the TRIzol method according to the manufacturer's protocol. Quantification of mRNAs abundance was determined using 1-step reverse transcription real-time quantitative PCR with the QuantiTect SYBR Green RT-PCR Kit (Qiagen, Germany), performed on a Rotor-Gene Q Real-Time system (Qiagen, Germany). […] Target gene expression was normalized to constitutively expressed ACT-β gene, and the relative quantity of target gene mRNAs was expressed as 2^−ΔΔCt using the relative comparative threshold cycle method as previously described [[33], [34], [35]]. […]

Aβ1-42-induced AD mice [3] = assay: Passive avoidance test; format: in vivo, ICR male mice
From the text: as §1, with “Seven-week-old ICR male mice (25−30 g body weight range) were purchased from the Samtaco BIO, KOREA (Osan-si, Gyeonggi-do, Korea). […] All” for “All”
as §2, §3
The passive avoidance experiment is a commonly used method for assessing enhancements in learning and memory capabilities. The experiment was conducted in a room with noise levels below 60 dB and dim lighting. The measuring instrument, Shuttle Box Test Package (Med Associates Inc., Vermont, USA), consisting of two rooms of equal size (25 × 25 cm). An automatic guillotine door was installed on the wall separating the two rooms. One room was illuminated (20 W light bulb), while the other remained dark. The mice were trained to associate the dark environment with an aversive stimulus. In the experiment (n = 3), upon entry into the dark room, an electric shock (foot-shock) was administered by passing a current of 3 mA for 5 s through a stainless-steel grid beneath the room. This procedure facilitated the mouse's recognition of the association between the dark environment and the aversive stimulus.

Aβ1-42-induced AD mice [4] = assay: Brain tissue TUNEL assay (hippocampal apoptosis); format: in vivo, ICR male mice; settings: Aβ1-42 AD mice; SFN 10 mg/kg oral; AD group 40.3 ± 10.4
From the text: as §1, with “Seven-week-old ICR male mice (25−30 g body weight range) were purchased from the Samtaco BIO, KOREA (Osan-si, Gyeonggi-do, Korea). […] All” for “All”
as §2, §3

Aβ1-42-induced AD mice [5] = assay: Morris water maze test; format: in vivo, ICR male mice; settings: Aβ1-42 AD mice; for average escape latency time over the three days: AD group 42.7 ± 9.13, normal 27.66 ± 3.97
From the text: as §1, with “Seven-week-old ICR male mice (25−30 g body weight range) were purchased from the Samtaco BIO, KOREA (Osan-si, Gyeonggi-do, Korea). […] All” for “All”
as §2, §3, §4

[6] = In vivo oral absorption of SFN and BSE in rats (pharmacokinetics); design: species or system Sprague–Dawley rats; settings: for AUCinf / AUClast / Cmax / MRT / T1/2 / Tmax: plasma SFN
Description: Sprague–Dawley rats (males, 6–7 weeks old, 200–250 g) were purchased from G-bio (Gwangju, Republic of Korea). The animals were housed under standard conditions in terms of temperature (23 ± 2 °C), relative humidity (RH; 55 ± 10 %), and light (12/12 h light/dark cycle). The animals had ad libitum access to a standard laboratory diet (Nestlé Purina PetCare Research, St. Louis, MO, USA) and ion-sterilized tap water. Ethical approval for this study was obtained from the IACUC of Mokpo National University (Jeonnam, Republic of Korea; approval no. MNU-IACUC-2023-009).
To examine the distinction of pharmacokinetic parameters of SFN after IV injection and oral administration of SFN or BSEP (containing 3 % SFN), Sprague–Dawley rats were orally administered 400 μL of SFN dissolved in 0.5 % sodium CMC (5 mg/kg, SFN-oral) or aqueous solution of BSEP (equivalent to 5 mg/kg SFN, BSEP-oral). To calculate the oral bioavailability, rats were intravenously injected with 200 μL of SFN (5 mg/kg SFN dissolved in 0.5 % sodium CMC) via the femoral vein. Then, 200-μL blood samples were collected from the cannulated femoral artery at predetermined time points and immediately centrifuged at 13,000×g for 5 min at 4 °C. The separated plasma samples were kept frozen at −80 °C until analysis.
To determine the plasma concentrations of SFN, the working solutions of SFN of 20, 15, 10, 5, 2, 1, 0.6, and 0.2 μg/mL, and 5 μg/mL phenylethyl isothiocyanate (internal standard, IS) were prepared in acetonitrile. Then, 10 μL of each working solution and 10 μL of IS were spiked with 180 μL of rat blank plasma for standard solution. Separately, 180 μL of each plasma sample was spiked with 10 μL of IS solution and 10 μL of acetonitrile. Next, 200 μL of a mixture of acetonitrile, water, and ethanol (25:25:50, v/v/v) was added to each plasma sample spiked with IS, followed by vortex mixing. After centrifugation at 13,000×g for 5 min at room temperature, the supernatant was transferred to another vial for further extraction using an HLB SPF μElution plate (Waters Corp., Milford, MA, USA). Each well of the SPE plate was conditioned and equilibrated by 200 μL of methanol and water, respectively. Then, the 400 μL of the collected supernatant was added to each well of the plate and aspirated under a 5 H g vacuum. After washing with 200 μL of water and 50 % methanol, each well was eluted with 400 μL (200 μL × 2 times) of acetonitrile.
Each eluted sample (10 μL) was injected into a UPLC system (ACQUITY UPLC; Waters Corp.) equipped with an ACQUITY UPLC BEH C18 column (2.1 × 50 mm, 1.7 μm; Waters Corp.) at 50 °C. SFN and IS were eluted by the mobile phase (10 mM ammonium acetate in water:0.1 % formic acid in acetonitrile [3:7, v/v]) at a flow rate of 0.6 mL/min. A mass spectrometer (Xevo TQ-S; Waters Corp.) was used for ionization of SFN or the IS (in positive ion multiple reaction-monitoring mode) at an electrospray voltage of 3.0 kV, with a source temperature of 120 °C, desolvation temperature of 500 °C, and desolvation gas flow rate of 800 L/h. SFN quantification was performed by reference to the m/z transition 178.0 → 114.0 at a cone voltage of 24 V and collision energy of 30 eV; for IS, the m/z transition was 164.0 → 130.0 at a cone voltage of 23 V and collision energy of 22 eV.

[7] = cited from earlier work
[8] = following the consumption of broccoli sprouts or supplements; cited from earlier work
[9] = cited from earlier work; remark: listed apart in the source
[10] = rodents, within a few hours post-administration, oral or intraperitoneal; cited from earlier work
[11] = single oral dose 5 mg/kg SFN (SFN in 0.5 % sodium CMC; BSEP aqueous solution equivalent to 5 mg/kg SFN)

acetylcholinesterase (AChE), sequence (P21836 32-614): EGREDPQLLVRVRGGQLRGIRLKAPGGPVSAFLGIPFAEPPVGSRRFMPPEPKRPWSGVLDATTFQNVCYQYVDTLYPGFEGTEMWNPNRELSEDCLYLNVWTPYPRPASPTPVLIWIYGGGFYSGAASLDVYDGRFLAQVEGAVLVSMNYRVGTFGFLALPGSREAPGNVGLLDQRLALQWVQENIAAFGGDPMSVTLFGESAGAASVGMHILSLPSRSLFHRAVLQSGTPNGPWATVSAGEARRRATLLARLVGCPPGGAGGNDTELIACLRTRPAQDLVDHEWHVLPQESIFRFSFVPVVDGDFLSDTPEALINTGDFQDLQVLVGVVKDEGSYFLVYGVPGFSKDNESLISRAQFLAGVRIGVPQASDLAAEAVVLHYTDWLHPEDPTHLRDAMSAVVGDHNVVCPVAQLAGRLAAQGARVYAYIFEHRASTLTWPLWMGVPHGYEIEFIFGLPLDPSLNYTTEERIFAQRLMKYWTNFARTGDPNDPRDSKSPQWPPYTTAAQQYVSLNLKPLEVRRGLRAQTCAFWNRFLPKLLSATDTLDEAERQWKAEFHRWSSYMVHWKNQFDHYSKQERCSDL

Compound: 1-isothiocyanato-4-methylsulfonylbutane [SFN]
- brain AChE activity relative to normal group (100 %) ([1]; AD control 162 %): 105%
- brain AChE activity ([1]; AD control 1707.1 ± 97.12, normal 1057.44 ± 75.41): 1104.65 ± 123.41 mU/mL
- time spent in the quadrant where the platform was previously located (Aβ1-42-induced AD mice [2]; SFN 10 mg/kg): 8.83 ± 5.92 s
- brain ACh level (acetylcholine (ACh)): 1.2 ± 0.1 nmol/µL
- reduction of TNF-α expression versus control (LPS stimulation only) (TNF-α; 1:100 dilution (of SFN 210 ppm; of 1 % BSEP)): 30–40%
- TNF-α gene expression (TNF-α; undiluted (positive control SFN 210 ppm; 1 % BSEP solution), LPS 1 μg/mL): significant downregulation
- time spent in the brightly lit room before entering the dark room (Aβ1-42-induced AD mice [3]; SFN 10 mg/kg oral, AD control 19): 90 s
- time spent in the brightly lit room before entering the dark room (Aβ1-42-induced AD mice [3]; SFN 10 mg/kg oral, AD control 51): 166 s
- time spent in the brightly lit room before entering the dark room (Aβ1-42-induced AD mice [3]; SFN 10 mg/kg oral, first of three values, AD control 25): 37 s
- number of TUNEL-positive cells in the hippocampus (Aβ1-42-induced AD mice [4]): 19.0 ± 5.2 cells
- escape latency times by the third day (Aβ1-42-induced AD mice [5]; SFN 10 mg/kg oral): comparable to those of the normal control group
- average escape latency time over the three days (Aβ1-42-induced AD mice [5]; SFN 10 mg/kg oral): 28.01 ± 2.95 s
- Bioavailability ([6]; single IV dose 5 mg/kg SFN (reference)): 100%
- AUCinf ([6]; single IV dose 5 mg/kg SFN): 390 ± 33.7 ng·h/mL
- AUClast ([6]; single IV dose 5 mg/kg SFN): 380 ± 27.5 ng·h/mL
- Cmax ([6]; single IV dose 5 mg/kg SFN): 414 ± 65.1 ng/mL
- MRT ([6]; single IV dose 5 mg/kg SFN): 0.971 ± 0.224 h
- T1/2 ([6]; single IV dose 5 mg/kg SFN): 1.35 ± 0.806 h
- Tmax ([6]; single IV dose 5 mg/kg SFN): 0.170 ± 0.000 h
- AUCinf [6, 11]: 259 ± 39.6 ng·h/mL
- AUClast [6, 11]: 241 ± 46.1 ng·h/mL
- Cmax [6, 11]: 96.2 ± 13.1 ng/mL
- MRT [6, 11]: 3.14 ± 0.835 h
- T1/2 [6, 11]: 1.82 ± 0.574 h
- Tmax [6, 11]: 1.00 ± 0.000 h
- Bioavailability ([6]; single oral dose 5 mg/kg SFN (SFN in 0.5 % sodium CMC; BSEP aqueous solution equivalent to 5 mg/kg SFN), versus SFN-IV): 63.4 ± 12.1%
- typical urinary excretion, of the administered dose [7]: 70−90%
- SFN level detected in human plasma [8]: nanomolar to low micromolar levels
- doses that may lead to toxicity [9]: exceeding 150 mg/kg body weight
- SFN brain concentrations [10]: 0.5 to 2 µM

Compound: COc1cc2c(cc1OC)C(=O)C(CC1CCN(Cc3ccccc3)CC1)C2 (stereo not drawn) [donepezil]
- time spent in the quadrant where the platform was previously located (Aβ1-42-induced AD mice [2]; donepezil 5 mg/kg): 16.26 ± 4.61 s
- time spent in the brightly lit room before entering the dark room (Aβ1-42-induced AD mice [3]; donepezil 5 mg/kg oral, AD control 19): 100 s
- time spent in the brightly lit room before entering the dark room (Aβ1-42-induced AD mice [3]; donepezil 5 mg/kg oral, AD control 51): 149 s
- time spent in the brightly lit room before entering the dark room (Aβ1-42-induced AD mice [3]; donepezil 5 mg/kg oral, first of three values, AD control 25): 29 s
- escape latency times by the third day (Aβ1-42-induced AD mice [5]; donepezil 5 mg/kg oral): comparable to those of the normal control group
- average escape latency time over the three days (Aβ1-42-induced AD mice [5]; donepezil 5 mg/kg oral): 34.97 ± 3.21 s
